Data published in patent US20090197957A1, “Methods and compositions for the treatment of pain” (Nuon Therapeutics, Inc., priority 2005, published 2009).
“And” between values parts separate entries of the source, which are not always exact repeats. Equal entries are not always repeated.

Tests used:
[1] = similar adenoma prevention trial; cited from earlier work
[2] = test system: acetic acid-induced writhing; assay: Analgesia, acetic acid writhing in mice (Example 3); format: in vivo, mouse; conditions: 100 mg/kg PO
Procedure: 3-Hydroxyanthranilic acid was evaluated for possible analgesic activity in mouse acetic acid-induced pain response assay.
3-Hydroxyanthranilic acid was purchased from Sigma (USA) by MDS Pharma Services-Taiwan Ltd. and administered orally at the doses of 400, 200 and 100 mg/kg for analgesia, acetic acid-induced writhing assay. 2% Tween 80 was used as the vehicle.
Male CD-1 (Crl.) mice provided by BioLasco Taiwan (under Charles River Laboratories Technology Licensee) were used. Space allocation for 10 animals was 29×18×13 cm. All animals were maintained in a controlled temperature (23° C.-24° C.) and humidity (60%-70%) environment with 12 hours light dark cycles for at least one week in MDS Pharma Services—Taiwan Laboratory prior to use. Free access to standard lab chow for Mice (LabDiet Rodent Diet, PMI Nutrition International, USA) and tap water was granted. All aspects of this work including housing, experimentation and disposal of animals were performed in general accordance with the Guide for the Care and Use of Laboratory Animals (National Academy Press, Washington, D.C., 1996).
Test substance was administered orally to groups of 5 CD-1 (Crl.) derived male or female mice weighing 24±2 g, 2 hour before injection of acetic acid (0.5%, 20 ml/kg IP). Reduction in the number of writhes by 50 percent or more (≧50%) per group of animals observed during the 5 to 10 minute period after acetic acid administration, relative to a vehicle-treated control group, indicates possible analgesic activity.
Test substance was administered orally to groups of 5 mice 1 hour before injection of 0.5% Acetic Acid (20 ml/kg IP). The number of writhing per group of animals observed during the 5 to 10 minute period after acetic acid challenge was observed. Reduction in the number of writhing by 50 percent or more (≧50%) relative to the vehicle-treated control group indicates possible analgesic activity.

[3] = patients in a colorectal adenoma prevention trial; cited from earlier work
[4] = short-term use following coronary artery by-pass surgery; cited from earlier work
[5] = test system: acetic acid-induced writhing; assay: Analgesia, acetic acid writhing in mice (Assay #503900, Example 1); format: in vivo, mouse; conditions: 30 mg/kg PO, 60 minutes before acetic acid

In the case of Cc1ccc(-c2cc(C(F)(F)F)nn2-c2ccc(S(N)(=O)=O)cc2)cc1 [celecoxib], the “risk of adverse cardiovascular events” value [1] is given as “triple the risk”.
In the case of CC(=O)Oc1ccccc1C(=O)O [Aspirin], the “No. of Writhing Average” value ([2]; group of 5 mice) is reported as 5, the “% Inhibition” value ([2]; relative to vehicle control) is reported as “(62) %” and the “No. of Writhing Individual” value ([2]; single mice) is reported as 0 and 8 and 3 and 7 and 9.
For CS(=O)(=O)c1ccc(C2=C(c3ccccc3)C(=O)OC2)cc1 [Rofecoxib, rofecoxib], the “risk of heart attacks or strokes” value [3] is listed as “double the risk”.
In the case of CCC(=O)NS(=O)(=O)c1ccc(-c2c(-c3ccccc3)noc2C)cc1 [parecoxib], the “incidence of cardiovascular events” value [4] is listed as “increased incidence”.
In the case of CC(C)Cc1ccc(C(C)C(=O)O)cc1 (stereo not shown) [Ibuprofen], the “No. of Writhing Average” value ([5]; group of 5 mice) is reported as 8, the “% Inhibition” value ([5]; relative to vehicle control) is reported as “(53) %” and the “No. of Writhing Individual” value ([5]; single mice) is reported as 6 and 8 (2×) and 10 (2×).
In the case of Cc1onc(-c2ccccc2)c1-c1ccc(S(N)(=O)=O)cc1 [valdecoxib], the “incidence of cardiovascular events” value [4] is given as “increased incidence”.
